According to ChEMBL document CHEMBL3751717, “Benzylamide antagonists of protease activated receptor 2 with anti-inflammatory activity” (Bioorg Med Chem Lett, 2016):
One block for each compound: values may come before it. The source made the active and inactive calls. The rule behind the calls is not given here.

Assays:
[1] = biological target: Proteinase-activated receptor 2 (Homo sapiens) (UniProt P55085); test: Agonist activity at PAR2 in human HT-29 cells assessed as induction of ca2+ release at 10 uM after 1 hr by FLIPR assay relative to 2f-LIGRLO-NH2; format: cell-based
[2] = biological target: Proteinase-activated receptor 2 (Homo sapiens) (UniProt P55085); test: Antagonist activity at PAR2 in human HT-29 cells assessed as inhibition of 2f-LIGRLO-NH2-induced ca2+ release at 1 uM preincubated for 15 mins measured after 1 hr by FLIPR assay; format: cell-based
[3] = biological target: T1, Proteinase-activated receptor 2 (Homo sapiens, UniProt P55085); test: Antagonist activity at PAR2 in human HT-29 cells assessed as inhibition of 2f-LIGRLO-NH2-induced ca2+ release preincubated for 15 mins measured after 1 hr by FLIPR assay; format: cell-based
T1 sequence (P55085 whole entry): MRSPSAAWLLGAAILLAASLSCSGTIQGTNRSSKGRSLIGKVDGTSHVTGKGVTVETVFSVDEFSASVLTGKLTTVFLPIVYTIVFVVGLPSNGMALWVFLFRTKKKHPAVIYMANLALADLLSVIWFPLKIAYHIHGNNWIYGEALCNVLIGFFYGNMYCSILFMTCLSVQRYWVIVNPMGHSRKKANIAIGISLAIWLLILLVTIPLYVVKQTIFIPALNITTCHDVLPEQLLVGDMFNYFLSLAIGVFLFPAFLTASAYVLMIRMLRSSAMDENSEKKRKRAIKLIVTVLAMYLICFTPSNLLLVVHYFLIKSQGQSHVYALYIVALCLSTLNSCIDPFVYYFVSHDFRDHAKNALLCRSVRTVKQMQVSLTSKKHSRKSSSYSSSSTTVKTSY

[4] = biological target: T1, Proteinase-activated receptor 2; test: Antagonist activity at PAR2 in human HT-29 cells assessed as inhibition of trypsin-induced ca2+ release preincubated for 15 mins measured after 1 hr by FLIPR assay; format: cell-based
[5] = biological target: T2, Proteinase-activated receptor 1 (Homo sapiens) (UniProt P25116); test: Antagonist activity at PAR1 in human PC3 cells assessed as inhibition of alpha-thrombin-induced ca2+ release at 100 uM preincubated for 15 mins measured after 1 hr by FLIPR assay; format: cell-based; conditions: PC-3
T2 sequence (whole entry): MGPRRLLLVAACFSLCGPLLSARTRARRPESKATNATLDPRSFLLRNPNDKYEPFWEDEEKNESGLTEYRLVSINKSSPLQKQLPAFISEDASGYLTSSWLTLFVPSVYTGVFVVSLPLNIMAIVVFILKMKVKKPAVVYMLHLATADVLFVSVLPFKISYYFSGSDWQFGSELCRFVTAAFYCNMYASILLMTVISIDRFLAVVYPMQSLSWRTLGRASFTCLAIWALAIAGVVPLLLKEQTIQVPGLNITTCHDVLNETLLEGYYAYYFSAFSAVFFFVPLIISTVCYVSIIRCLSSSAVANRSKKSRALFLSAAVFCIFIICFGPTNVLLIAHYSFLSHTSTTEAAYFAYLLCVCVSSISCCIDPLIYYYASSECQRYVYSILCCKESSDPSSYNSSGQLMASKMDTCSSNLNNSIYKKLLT

[6] = biological target: T2, Proteinase-activated receptor 1 (Homo sapiens); test: Antagonist activity at PAR1 in human PC3 cells assessed as inhibition of TFLLR-induced ca2+ release at 100 uM preincubated for 15 mins measured after 1 hr by FLIPR assay; format: cell-based; conditions: PC-3
HTEC [7] = test: Antiinflammatory activity in human HTEC cells assessed as inhibition of 2f-LIGRLO-NH2-induced IL-6 production at 5 to 10 uM after 24 hrs by ELISA; format: functional, cell-based
HTEC [8] = test: Antiinflammatory activity in human HTEC cells assessed as inhibition of 2f-LIGRLO-NH2-induced TNFalpha production at 5 to 10 uM after 24 hrs by ELISA; format: functional, cell-based
[9] = biological target: T1, Proteinase-activated receptor 2; test: Displacement of europium-labeled 2f-LIGRLO-NH2 from human PAR2 expressed in CHO cells after 1 to 2 hrs; format: cell-based
[10] = Tmax in Wistar rat at 10 mg/kg, po; format: ADME, organism-based; conditions: in vivo
[11] = Cmax in Wistar rat at 10 mg/kg, po; format: ADME, organism-based; design: dose 10 mg/kg, route oral; conditions: in vivo
[12] = AUC (0 to 6 hrs) in Wistar rat at 10 mg/kg, po; format: ADME, organism-based; design: time < 6 hr, dose 10 mg/kg, route oral; conditions: in vivo
Rattus norvegicus [13] = test: Antiinflammatory activity in Wistar rat assessed as inhibition of 2f-LIGRLO-NH2-induced paw edema at 10 mg/kg, po dosed 120 mins before 2f-LIGRLO-NH2 stimulation; format: functional, organism-based
Rattus norvegicus [14] = test: Antiinflammatory activity in Wistar rat assessed as inhibition of 2f-LIGRLO-NH2-induced paw edema at 5 mg/kg, sc dosed 120 mins before 2f-LIGRLO-NH2 stimulation; format: functional, organism-based

SMILES: CC[C@H](C)[C@H](NC(=O)[C@H](CC1CCCCC1)NC(=O)c1ccno1)C(=O)NCc1ccc(OC)cc1
Activity [1]: 51%
inhibition [2]: 95%

SMILES: CC[C@H](C)[C@H](NC(=O)[C@H](CC1CCCCC1)NC(=O)c1ccno1)C(=O)NCc1ccc(F)cc1
Activity [1]: 28%
inhibition [2]: 82%

SMILES: CC[C@H](C)[C@H](NC(=O)[C@H](CC1CCCCC1)NC(=O)c1ccno1)C(=O)NCc1cccc(OC)c1
Activity [1]: 32%
inhibition [2]: 98%

SMILES: CC[C@H](C)[C@H](NC(=O)[C@H](CC1CCCCC1)NC(=O)c1ccno1)C(=O)NCc1ccncc1
Activity [1]: 87%

SMILES: CC[C@H](C)[C@H](NC(=O)[C@H](CC1CCCCC1)NC(=O)c1ccno1)C(=O)NCCc1ccc(OC)c(OC)c1
Activity [1]: 39%
inhibition [2]: 32%

SMILES: CC[C@H](C)[C@H](NC(=O)[C@H](CC1CCCCC1)NC(=O)c1ccno1)C(=O)NCc1ccc2c(c1)OCO2
Activity [1]: 33%
inhibition [2]: 84%

SMILES: CCC(C)Oc1ccccc1CNC(=O)[C@@H](NC(=O)[C@H](CC1CCCCC1)NC(=O)c1ccno1)[C@@H](C)CC (stereo partly specified)
Activity [1]: 6%
inhibition [2]: 53%
IC50 ([3]; read-out: IC50): 1000 nM
IC50 ([3]; read-out: pIC50 (converted)): 1260 nM

SMILES: CC[C@H](C)[C@H](NC(=O)[C@H](CC1CCCCC1)NC(=O)c1ccno1)C(=O)N(CC(C)C)CC(C)C
Activity [1]: 1%
inhibition [2]: 0%

SMILES: CC[C@H](C)[C@H](NC(=O)[C@H](CC1CCCCC1)NC(=O)c1ccno1)C(=O)NCc1cccc(OC(F)(F)F)c1
Activity [1]: 44%
inhibition [2]: 18%

SMILES: CC[C@H](C)[C@H](NC(=O)[C@H](CC1CCCCC1)NC(=O)c1ccno1)C(=O)NCc1cccc(F)c1
Activity [1]: 28%
inhibition [2]: 74%

SMILES: CC[C@H](C)[C@H](NC(=O)[C@H](CC1CCCCC1)NC(=O)c1ccno1)C(=O)NCc1cccc2c1OCO2
Activity [1]: 46%
inhibition [2]: 90%

SMILES: CCCCOc1ccccc1CNC(=O)[C@@H](NC(=O)[C@H](CC1CCCCC1)NC(=O)c1ccno1)[C@@H](C)CC
Activity [1]: 1%
inhibition [2]: 8%

SMILES: CCCOc1ccccc1CNC(=O)[C@@H](NC(=O)[C@H](CC1CCCCC1)NC(=O)c1ccno1)[C@@H](C)CC
Activity [1]: 1%
inhibition [2]: 34%

SMILES: CC[C@H](C)[C@H](NC(=O)[C@H](CC1CCCCC1)NC(=O)c1ccno1)C(=O)NC1C2CC3CC(C2)CC1C3 (stereo partly specified)
Activity [1]: 26%
inhibition [2]: 29%

Second part, led by results:

Activity [1]: 7%
inhibition [2]: 7%
SMILES: CC[C@H](C)[C@H](NC(=O)[C@H](CC1CCCCC1)NC(=O)c1ccno1)C(=O)N(C)Cc1ccccc1

Activity [1]: 23%
inhibition [2]: 76%
SMILES: CC[C@H](C)[C@H](NC(=O)[C@H](CC1CCCCC1)NC(=O)c1ccno1)C(=O)NCc1ccccc1

Activity [1]: 2%
inhibition [2]: 12%
SMILES: CC[C@H](C)[C@H](NC(=O)[C@H](CC1CCCCC1)NC(=O)c1ccno1)C(=O)NCc1cccc2ccccc12

Activity [1]: 45%
inhibition [2]: 94%
SMILES: CC[C@H](C)[C@H](NC(=O)[C@H](CC1CCCCC1)NC(=O)c1ccno1)C(=O)NCc1ccccc1[N+](=O)[O-]

Activity [1]: 29%
inhibition [2]: 71%
SMILES: CCOc1ccccc1CNC(=O)[C@@H](NC(=O)[C@H](CC1CCCCC1)NC(=O)c1ccno1)[C@@H](C)CC

Activity [1]: 20%
inhibition [2]: 100%
IC50 ([3]; read-out: IC50): 500 nM
IC50 ([4]; read-out: pIC50 (converted)): 2 µM
inhibition [5]: inactive
inhibition [6]: inactive
IC50 [9]: 4.5 µM
Tmax [10]: 2.63 h
Cmax [11]: 510 nM
AUC(0-t) at 6 h [12]: 444 ng·h/mL
SMILES: CC[C@H](C)[C@H](NC(=O)[C@H](CC1CCCCC1)NC(=O)c1ccno1)C(=O)NCc1ccccc1OC
inhibition (HTEC [7]): Active
inhibition (HTEC [8]): Active
inhibition (Rattus norvegicus [13]): inactive
inhibition (Rattus norvegicus [14]): Active

Activity [1]: 86%
SMILES: CC[C@H](C)[C@H](NC(=O)[C@H](CC1CCCCC1)NC(=O)c1ccno1)C(=O)NCc1nc2ccccc2[nH]1

Activity [1]: 43%
inhibition [2]: 85%
SMILES: CC[C@H](C)[C@H](NC(=O)[C@H](CC1CCCCC1)NC(=O)c1ccno1)C(=O)NCc1ccccc1Cl

Activity [1]: 5%
inhibition [2]: 17%
SMILES: CC[C@H](C)[C@H](NC(=O)[C@H](CC1CCCCC1)NC(=O)c1ccno1)C(=O)NCc1cccc(-c2ccccc2)c1

Activity [1]: 20%
inhibition [2]: 27%
SMILES: CC[C@H](C)[C@H](NC(=O)[C@H](CC1CCCCC1)NC(=O)c1ccno1)C(=O)N(C)Cc1ccccc1OC

Activity [1]: 42%
inhibition [2]: 57%
SMILES: CC[C@H](C)[C@H](NC(=O)[C@H](CC1CCCCC1)NC(=O)c1ccno1)C(=O)NCc1ccccc1C(F)(F)F

Activity [1]: 1%
inhibition [2]: 0%
SMILES: CC[C@H](C)[C@H](NC(=O)[C@H](CC1CCCCC1)NC(=O)c1ccno1)C(=O)NCc1ccccc1-c1ccccc1

Activity [1]: 40%
inhibition [2]: 93%
SMILES: CC[C@H](C)[C@H](NC(=O)[C@H](CC1CCCCC1)NC(=O)c1ccno1)C(=O)NCc1ccccc1F

Activity [1]: 83%
SMILES: CC[C@H](C)[C@H](NC(=O)[C@H](CC1CCCCC1)NC(=O)c1ccno1)C(=O)NCc1ccccn1

Activity [1]: 38%
inhibition [2]: 67%
SMILES: CC[C@H](C)[C@H](NC(=O)[C@H](CC1CCCCC1)NC(=O)c1ccno1)C(=O)NCc1ccccc1OC(C)C

Activity [1]: 6%
inhibition [2]: 0%
SMILES: CC[C@H](C)[C@H](NC(=O)[C@H](CC1CCCCC1)NC(=O)c1ccno1)C(=O)NCc1ccc(-c2ccccc2)cc1

Activity [1]: 29%
inhibition [2]: 74%
SMILES: CC[C@H](C)[C@H](NC(=O)[C@H](CC1CCCCC1)NC(=O)c1ccno1)C(=O)NCc1ccccc1C

Activity [1]: 41%
inhibition [2]: 33%
SMILES: CC[C@H](C)[C@H](NC(=O)[C@H](CC1CCCCC1)NC(=O)c1ccno1)C(=O)NNc1ccccc1

Activity [1]: 16%
inhibition [2]: 54%
IC50 ([3]; read-out: pIC50 (converted)): 1260 nM
IC50 ([4]; read-out: IC50): 9.6 µM
inhibition [5]: inactive
inhibition [6]: inactive
Tmax [10]: 2.78 h
Cmax [11]: 1970 nM
AUC(0-t) at 6 h [12]: 3420 ng·h/mL
SMILES: CC[C@H](C)[C@H](NC(=O)[C@H](CC1CCCCC1)NC(=O)c1ccno1)C(=O)N1CCC2(C=Cc3ccccc32)CC1
inhibition (Rattus norvegicus [13]): Active
inhibition (Rattus norvegicus [14]): Active
